According to PubChem BioAssay AID1507 (NMMLSC, 2009):
The source made the active and inactive calls. The rule behind the calls is not given here.

Tested on: S. aureus strains, alpha hemolysin production inhibition
Test: inhibition of S. aureus alpha hemolysin production, S. aureus quorum sensing inhibitors, NM300, NM400, MRSA3757 (AID 1507)
Conditions: for inhibition: stronger effect = higher value
[1] = hemolysin inhibition, MRSA3757, at 12 µM
[2] = hemolysin inhibition, strain NM400, at 12 µM

Question: How did the inhibition (at 30 µM) turn out when Cc1c(Cl)cccc1Nc1ccccc1C(=O)O was run?
Answer: 99%

Question: What about the inhibition (hemolysin inhibition, strain NM300, at 30 µM) of the same compound?
Answer: 100%

Question: Which results are given for CC1CCCN(C(C(=O)Nc2ccc3c(c2)OCO3)c2ccccc2)C1 (stereo not given)?
Answer: outcome (at 12 µM): inactive; agr3 active; inhibition [1]: 15%; inhibition [2]: 55%

Question: Which inhibition (at 6 µM) does the source give for CCc1oc2ccccc2c1C(=O)c1cc(Br)c(O)c(Br)c1 here?
Answer: 100%

Question: What about the inhibition (hemolysin inhibition, strain NM300, at 6 µM) of the same compound?
Answer: 100%

Question: What does the source list for CC1CCCN(C(C(=O)Nc2ccc3c(c2)OCCO3)c2ccccc2)C1 (stereo not given)?
Answer: outcome (at 12 µM): inactive; agr3 active; inhibition [1]: 20%; inhibition [2]: 57%
